Measured values: the NIST ThermoML archive (doi:10.1021/je100679s)

Experiment: xn = mol fraction of the nth substance listed
Conditions: 101 kPa, Liquid; for electrical conductivity: DDS-307 conductivity meter

CCCCCCn1cc[n+](C)c1C.O=S(=O)([N-]S(=O)(=O)C(F)(F)F)C(F)(F)F + COC(=O)OC
Conditions	electrical conductivity [S/m]	mass density [kg/m3]
293.15 K, x1 = 0.0466	–	1120.02
293.15 K, x1 = 0.0774	–	1145.97
293.15 K, x1 = 0.1154	–	1173.26
293.15 K, x1 = 0.1633	–	1201.7
293.15 K, x1 = 0.2269	–	1231.14
293.15 K, x1 = 0.3131	–	1261.37
293.15 K, x1 = 0.4385	–	1292.48
293.15 K, x1 = 0.6368	–	1324.48
293.15 K, x1 = 0.7472	–	1337.22
293.15 K, x1 = 1	–	1358.19
298.15 K, x1 = 0.0466	0.34	1113.88
298.15 K, x1 = 0.0774	0.579	1140.01
298.15 K, x1 = 0.1154	0.755	1167.46
298.15 K, x1 = 0.1633	0.839	1195.92
298.15 K, x1 = 0.2269	0.813	1225.5
298.15 K, x1 = 0.3131	0.631	1255.94
298.15 K, x1 = 0.4385	0.509	1287.18
298.15 K, x1 = 0.6368	0.23	1319.32
298.15 K, x1 = 0.7472	0.164	1332.18
298.15 K, x1 = 1	0.108	1353.11
303.15 K, x1 = 0.0466	0.378	1107.71
303.15 K, x1 = 0.0774	0.649	1134.13
303.15 K, x1 = 0.1154	0.82	1161.84
303.15 K, x1 = 0.1633	0.893	1190.53
303.15 K, x1 = 0.2269	0.862	1220.22
303.15 K, x1 = 0.3131	0.689	1250.93
303.15 K, x1 = 0.4385	0.553	1282.32
303.15 K, x1 = 0.6368	0.296	1314.7
303.15 K, x1 = 0.7472	0.209	1327.65
303.15 K, x1 = 1	0.158	1348.71
308.15 K, x1 = 0.0466	0.416	1101.52
308.15 K, x1 = 0.0774	0.718	1128.2
308.15 K, x1 = 0.1154	0.884	1156.12
308.15 K, x1 = 0.1633	0.947	1185.04
308.15 K, x1 = 0.2269	0.91	1214.85
308.15 K, x1 = 0.3131	0.751	1245.85
308.15 K, x1 = 0.4385	0.61	1277.48
308.15 K, x1 = 0.6368	0.361	1310.14
308.15 K, x1 = 0.7472	0.275	1323.1
308.15 K, x1 = 1	0.213	1344.29
313.15 K, x1 = 0.0466	0.454	1096.1
313.15 K, x1 = 0.0774	0.788	1123
313.15 K, x1 = 0.1154	0.949	1151.09
313.15 K, x1 = 0.1633	1	1180.2
313.15 K, x1 = 0.2269	0.959	1210.16
313.15 K, x1 = 0.3131	0.812	1241.28
313.15 K, x1 = 0.4385	0.667	1272.94
313.15 K, x1 = 0.6368	0.433	1305.67
313.15 K, x1 = 0.7472	0.35	1318.62
313.15 K, x1 = 1	0.271	1339.88
318.15 K, x1 = 0.0466	0.492	1089.11
318.15 K, x1 = 0.0774	0.857	1116.3
318.15 K, x1 = 0.1154	1.01	1144.64
318.15 K, x1 = 0.1633	1.05	1174.05
318.15 K, x1 = 0.2269	1.01	1204.45
318.15 K, x1 = 0.3131	0.876	1235.85
318.15 K, x1 = 0.4385	0.706	1267.89
318.15 K, x1 = 0.6368	0.492	1300.91
318.15 K, x1 = 0.7472	0.399	1314.09
318.15 K, x1 = 1	0.319	1335.47
323.15 K, x1 = 0.0466	0.53	1082.85
323.15 K, x1 = 0.0774	0.927	1110.32
323.15 K, x1 = 0.1154	1.08	1138.89
323.15 K, x1 = 0.1633	1.11	1168.73
323.15 K, x1 = 0.2269	1.05	1199.16
323.15 K, x1 = 0.3131	0.933	1230.72
323.15 K, x1 = 0.4385	0.782	1263.01
323.15 K, x1 = 0.6368	0.548	1296.31
323.15 K, x1 = 0.7472	0.469	1309.51
323.15 K, x1 = 1	0.369	1331.06
328.15 K, x1 = 0.0466	0.568	1076.68
328.15 K, x1 = 0.0774	0.996	1104.42
328.15 K, x1 = 0.1154	1.14	1133.32
328.15 K, x1 = 0.1633	1.16	1163.27
328.15 K, x1 = 0.2269	1.1	1193.98
328.15 K, x1 = 0.3131	0.998	1225.63
328.15 K, x1 = 0.4385	0.834	1258.14
328.15 K, x1 = 0.6368	0.623	1291.79
328.15 K, x1 = 0.7472	0.537	1304.97
328.15 K, x1 = 1	0.426	1326.65
333.15 K, x1 = 0.0466	0.606	1070.28
333.15 K, x1 = 0.0774	1.07	1098.51
333.15 K, x1 = 0.1154	1.21	1127.61
333.15 K, x1 = 0.1633	1.22	1157.77
333.15 K, x1 = 0.2269	1.15	1188.58
333.15 K, x1 = 0.3131	1.07	1220.43
333.15 K, x1 = 0.4385	0.915	1253.16
333.15 K, x1 = 0.6368	0.686	1287.1
333.15 K, x1 = 0.7472	0.605	1300.47
333.15 K, x1 = 1	0.48	1322.24
